Measurements published in patent US12428369B2, “Crystal form of aromatic vinyl derivatives, and preparation method therefor and use thereof” (GUANGZHOU MAXINOVEL PHARMACEUTICALS CO., LTD., priority 2020, dated 2025).
In brackets after ≈: the same amount, converted by molar mass.

What was measured:
Assay type in all cases: physicochemical
[1] = Dynamic vapor sorption (DVS) analysis; conditions: 25° C.
Protocol: (§1) The hygroscopic characteristics of the sample were tested when the humidity changed from 0% RH to 95% RH, and the dehumidifying characteristics of the sample were tested when the humidity changed from 95% RH to 0% RH. The humidity change in each step size was 5% RH, the equilibrium standard was that the weight change rate within 10 min was less than 0.01%/min, and the longest equilibrium time was 2 hours.
as §1, with “5” for “10”

[2] = Equilibrium solubility and dissolution rate in water, SGF, FaSSIF, FeSSIF; conditions: 37° C.
Protocol: To further study whether the equilibrium solubility and dissolution rate of crystal forms A, B and C are different in pure water and physiological related media in vivo, the equilibrium solubility and dissolution rate of […] crystal forms in water, simulated gastric fluid (SGF), fasted-state simulated intestinal fluid (FaSSIF) and fed state simulated intestinal fluid (FeSSIF) were tested respectively.

[3] = Crystal form conversion on heating; conditions: heated to 200° C.
Protocol: 100 mg of the compound as shown in formula I sample was weighed and added to a bottle, then 20 times the volume of methanol was added to the bottle, and the mixture was magnetic stirred and slurried for 14 days at room temperature.
100 mg of the compound as shown in formula I sample was weighed and added to a glass bottle, and 100 times the volume of ethyl acetate (EA) and 20 times the volume of methanol (MeOH) were added to the bottle, and the sample was placed on a magnetic heating stirrer. The mixture was magnetic stirred to fully dissolve at a water bath of 50° C., filtered and the filtrate was slowly cooled to room temperature at a rate of 6° C./h, overnight, filtered under reduced pressure, and the solid was dried at 70° C. for 4 hours.
100 mg of the compound as shown in formula I sample was weighed and added to a bottle, then 30 times the volume of acetonitrile (ACN) (sample mass (g)×volume multiples) was added to the bottle, and the mixture was magnetic stirred and slurried for 2 days at room temperature, filtered under reduced pressure, and the solid was collected, and dried at 40° C. for 4 hours. The solid after drying was characterized, and the crystal form was defined as a crystal form VIII, and the XRPD pattern of the crystal form VIII is as shown in FIG. 20. […]

[4] = Solid-state stability: appearance and crystal form (XRPD)
Protocol: (§2) The samples of crystal forms A, B, and C were weighed and added to a 20 mL colorless transparent glass bottle, respectively, and the sample bottles were respectively placed under the corresponding influencing factors and acceleration conditions (the sample bottles under humidity conditions were sealed with tin foil and placed with holes, and the other samples were covered tightly and placed), taken out after being placed for 1 week and 2 weeks respectively, and the sample content and related substances under various conditions were detected by HPLC; according to the same method as above, samples were respectively weighed and placed under a corresponding influencing factor and accelerated condition, and were taken out after being placed for 2 weeks for observing the appearance and XRPD characterization of each sample, and the physical stability of each crystal form was examined, and the test methods are detailed in table 14 and table 15; at the same time, 2 samples of the crystal forms A, B, and C of the compound as shown in formula I were respectively weighed accurately into 20 mL colorless transparent glass bottles and covered tightly, placed in a −20° C. refrigerator, and taken out as a standard for HPLC analysis at 2 weeks, and the test results are detailed in table 16 and table 17.

[5] = Solid-state stability: content and related substances by HPLC
Protocol: as §2

[6] = Acceleration (40° C./75% RH), 2 weeks
[7] = High humidity (92.5% RH), 2 weeks
[8] = High temperature (60° C.), 2 weeks
[9] = Illumination (4500 Lux), 2 weeks
[10] = Acceleration (40° C./75% RH), 1 week
[11] = High humidity (92.5% RH), 1 week
[12] = High temperature (60° C.), 1 week
[13] = illumination (4500 LuX), 1 week
[14] = illumination (4500 LuX), 2 weeks

hygroscopicity ([1]; assessment in words): hygroscopic | weight gain ([1]; from 0% RH to 95% RH): 4.767% | Solubility ([2]; FaSSIF (rows r12-r14), 0.5 hours, listed as C): 9.1 µg/mL (≈ 19.4 µM) | Solubility ([2]; FaSSIF (rows r12-r14), 2 hours, listed as C): 2.2 µg/mL (≈ 4.69 µM) | Solubility ([2]; FaSSIF (rows r12-r14), 24 hours, listed as C): 4.5 µg/mL (≈ 9.58 µM) | Solubility ([2]; FaSSIF as printed (second set, rows r15-r17), 0.5 hours, listed as C): 181.7 µg/mL (≈ 387 µM) | Solubility ([2]; FaSSIF as printed (second set, rows r15-r17), 2 hours, listed as C): 174.3 µg/mL (≈ 371 µM) | Solubility ([2]; FaSSIF as printed (second set, rows r15-r17), 24 hours, listed as C): 166.6 µg/mL (≈ 355 µM) | Solubility ([2]; SGF, 0.5 hours): 0.3 µg/mL (≈ 0.639 µM) | Solubility ([2]; SGF, 2 hours): 0.2 µg/mL (≈ 0.426 µM) | Solubility ([2]; SGF, 24 hours): 0.5 µg/mL (≈ 1.06 µM) | Solubility ([2]; Water, 0.5 hours): 1.7 µg/mL (≈ 3.62 µM) | Solubility ([2]; Water, 2 hours): 6.5 µg/mL (≈ 13.8 µM) | Solubility ([2]; Water, 24 hours): 1.8 µg/mL (≈ 3.83 µM) | crystal form after heating [3]: converted into the crystal form A | Appearance [4, 6]: Off-white | Crystal form (XRPD) after storage [4, 6]: Crystal form C | Appearance ([4]; Control, −20° C., 2 weeks): Off-white | Crystal form (XRPD) after storage ([4]; Control, −20° C., 2 weeks, listed as Crystal form C-Control): Crystal form C | Appearance [4, 7]: Off-white | Crystal form (XRPD) after storage [4, 7]: Crystal form C | Appearance [4, 8]: Off-white | Crystal form (XRPD) after storage [4, 8]: Crystal form C | Appearance [4, 9]: Off-white | Crystal form (XRPD) after storage [4, 9]: Crystal form C | physical stability ([4]; four storage conditions, 2 weeks (conclusion)): good | Appearance ([4]; high temperature, high humidity, illumination and acceleration, 2 weeks (conclusion)): off-white | Content [5, 10]: 100.06% | Total related substances [5, 10]: 0.00% | Content [5, 6]: 99.89% | Total related substances [5, 6]: 0.00% | Content ([5]; Control, −20° C., 2 weeks): 100.00% | Total related substances ([5]; Control, −20° C., 2 weeks): 0.00% | Content [5, 11]: 101.55% | Total related substances [5, 11]: 0.00% | Content [5, 7]: 100.59% | Total related substances [5, 7]: 0.00% | Content [5, 12]: 98.41% | Total related substances [5, 12]: 0.00% | Content [5, 8]: 100.18% | Total related substances [5, 8]: 0.00% | Content [5, 13]: 102.18% | Total related substances [5, 13]: 0.52% | Content [5, 14]: 98.64% | Total related substances [5, 14]: 1.56%
SMILES: Cc1c(/C=C/c2cc(CN[C@@](C)(CO)C(=O)O)ccc2C(F)(F)F)cccc1-c1ccccc1 [Crystal form C]
